{"source": "patent US20180201650A1", "about": "(BGI SHENZHEN, priority 2014, published 2018)", "system": "HVA calcium channel", "type": "cell-based, rat"}
{"smiles": "COC(=O)C1=C(C)NC(C)=C(C(=O)OC)C1c1ccccc1[N+](=O)[O-]", "note": "[Nifedipine, reference compound]", "values": [{"measurement": "current after loading (pA)", "value": "−734.31", "unit": "pA"}, {"measurement": "current before loading (pA)", "value": "−1471.35", "unit": "pA"}, {"measurement": "inhibition rate (%)", "setting": "10 μM", "value": 50.09, "unit": "%"}]}
